Assay results: patent publication US20100041756A1, “METHOD OF MODULATING B CELL FUNCTIONING” (priority 2004, published 2010)

What was measured:
[1] = test system: DBA/1 mice with established CIA; test: Treatment of established CIA (Example 4): clinical score, paw-swelling, histology, relapse; format: in vivo, mouse
Method: FIG. 6 is a graphical representation of the treatment of established CIA with 3,4-DAA. DBA/1 mice were immunised with type II collagen in CFA and monitored for development of arthritis. On day 1 of arthritis, mice were injected intraperitoneally with 3,4-DAA on a daily basis. Paw thickness was measured with callipers. The clinical scoring system was as follows: 0=normal, 1=slight swelling and/or erythema, and 2=pronounced oedematous swelling. Each limb was graded, giving a maximum score of 8 per mouse. Histological assessment of arthritis was carried out on haematoxylin and eosin stained sections using a scoring system as follows: 0, normal; 1, minimal synovitis without cartilage/bone erosion; 2, synovitis with some marginal erosion but joint architecture maintained; 3, severe synovitis and erosion with loss of normal joint architecture. There were 14 mice/group (data pooled from two separate experiments). *, P<0.05 (compared to control group).
FIG. 9 is a graphical representation depicting the relapse of arthritis 4 days after cessation of therapy. Mice with established CIA (n=6) were treated with 3,4-DAA (400 mg/kg/day) from days 1 to 5 of arthritis and clinical severity of arthritis was monitored up to day 12. Arthritis is seen to relapse at around day 9.
Type II collagen was purified from bovine cartilage, as described [Williams, R. O. 2004, Methods Mol. Med. 98:207-216] and solubilized by stirring overnight at 4° C. in acetic acid (0.1M) or Tris buffer (0.05 M Tris, containing 0.2 M NaCl, pH 7.4). Tranilast was synthesised by Angiogen Pharmaceuticals Pty. Ltd. For in vivo studies Tranilast was dissolved at a maximum concentration of 10 mg/ml in 1% sodium bicarbonate by heating for 1 h at 70° C. Upon cooling, an emulsion was formed. For in vitro studies Tranilast was dissolved in dimethyl sulphoxide (DMSO). 3-Hydroxy-anthranilic acid (3-HAA) was purchased from Sigma (Poole, UK) and dissolved in PBS.
Male DBA/1 mice (8-12 weeks old) were immunized intradermally at the base of the tail with bovine type II collagen (200 μg) emulsified in complete Freund's adjuvant (CFA; Difco, West Moseley, UK). Arthritis was monitored clinically using the following scoring system: 0=normal, 1=slight swelling and/or erythema, and 2=pronounced oedematous swelling. Each limb was graded, giving a maximum score of 8 per mouse. In addition, paw-swelling was measured using calipers.
Histopathological assessment of arthritis was carried out in a blinded fashion on decalcified haematoxylin and eosin stained sections using a scoring system as follows: 0, normal; 1, minimal synovitis without cartilage/bone erosion; 2, synovitis with some marginal erosion but joint architecture maintained; 3, severe synovitis and erosion with loss of normal joint architecture. This research was approved by the local ethical review process committee and by the Home Office of Great Britain.
The ability of Tranilast to treat established CIA was tested. Mice were immunised with type II collagen in CFA. On day 1 of clinical arthritis (the day that arthritis was first observed) mice were randomly assigned to different treatment groups and given Tranilast (100 mg/kg/day, 200 mg/kg/day or 400 mg/kg/day) or vehicle alone over a 10 day period. […]
It is clearly of interest to establish what happens when treatment with Tranilast is stopped. […] Treatment was then stopped and mice were monitored for a further 7 days.

IL-10 = test: Serum IL-10 in mice with established CIA (ELISA); format: in vivo, mouse; details: 10 days treatment (FIG. 7)
Method: Mice with established CIA were treated with 3,4-DAA or vehicle (n=7) for 10 days (see FIG. 6), then bled. IL-10 in the sera was measured by ELISA.
(§1) Inguinal lymph nodes were excised from Tranilast-treated and control mice. Alternatively, inguinal lymph nodes were removed from untreated arthritic mice (day 1-5 of arthritis) and Tranilast was added in vitro. In both cases, LNC were cultured in RPMI 1640 containing FCS (10% v/v), 2-mercaptoethanol (20 μM), L-glutamine (1% w/v), penicillin (100 U/ml) and streptomycin (100 μg/ml) in the presence or absence of type II collagen (50 μg/ml). Secreted cytokines (IFN-γ, IL-5, TNFα and IL-10) were measured after 72 h. by ELISA. In brief, 96 well ELISA plates were coated with the respective capture antibody, blocked with bovine serum albumin (2% w/v), and then incubated with LNC culture supernatants (neat) overnight at 4° C. After washing, bound cytokines were detected using biotinylated detect antibodies. A standard curve was generated using known concentrations of the appropriate recombinant cytokine and the concentrations of cytokines present in culture supernatants were estimated by reference to the standard curve.

[2] = test system: inguinal lymph node cells; test: Cytokine production by draining (inguinal) lymph node cells of treated CIA mice (ELISA); format: in vivo, mouse; details: for IL-5 production by lymph node cells: treated mice (FIG. 8)
Method: FIG. 8 is a graphical representation depicting that mice with established CIA were treated for 10 days with 3,4-DAA or vehicle control. Mice were then killed and draining (inguinal) lymph node cells were cultured for 72 h in the absence or presence of type II collagen.
as §1

[3] = test system: B cells activated with LPS; test: B cell proliferation, BrdU uptake detected by FACS analysis (Example 2); format: cell-based; details: Mus musculus, LPS-induced, 100 μg/ml tranilast (FIG. 3), read-out: maximum inhibition of proliferation
Method: FIG. 3 is a graphical representation of the inhibition of B cell proliferation by tranilast. B-cells were activated in vitro with LPS, and 1-100 μg/ml tranilast. Proliferation was assessed using BrdU uptake, detected by FACs analysis. LPS induced proliferation in 72% of cells.
B cells were prepared for mouse spleen using rat anti-mouse IgM microbeads and the MACS system.
3 spleens were removed from male DBA/1 mice aged 8-12 weeks. A single cell suspension was prepared by cell-sieve.
Cells were cultured at 1×10^6 cells/ml in 2 ml complete RPMI with glutamine (10% FCS, 1% Pen/Strep, 50 μM 2-Mercaptoethanol, 1 mM Na-Pyruvate) for 48 h in the presence of LPS (20 μg/ml), and 100-25 μg/ml tranilast, or vehicle (DMSO).
20 μM BrdU (Sigma) was added to each well, and incubated overnight.
FACS analysis of staining was performed on the BD LSR Flow Cytometer.

[4] = 100, 200 or 400 mg/kg/day, 10 days (FIG. 6)

`COc1ccc(/C=C/C(=O)Nc2ccccc2C(=O)O)cc1OC` [Tranilast, 2-[[3-(3,4-dimethoxyphenyl)-1-oxo-2-propenyl]amino]benzoic acid] was tested, and the “day of relapse (exacerbation) of arthritis after cessation of therapy” value ([1]; 400 mg/kg/day days 1 to 5, monitored up to day 12 (FIG. 9)) was 9 days, the “arthritis severity during the treatment period” value ([1]; 400 mg/kg/day, day 1 to day 5 of arthritis (FIG. 9)) was “dramatic reduction in arthritis severity” and the clinical scores [1, 4] was “dose-dependent reduction”. For the same compound, the paw-swelling [1, 4] was “dose-dependent reduction”, the “histological severity of arthritis” value ([1]; day 10 (FIG. 6)) was “clear dose-dependent reduction” and the “circulating IL-10 levels” value (IL-10) was “dose-dependent increase”. The “circulating IL-10 levels” value (IL-10; listed as 3,4-DAA) was “increased IL-10 levels”, the “IFN-γ production by lymph node cells” value ([2]; cultured 72 h, mice given 400 mg/kg for 10 days (FIG. 8)) was “significantly reduced” and the “IL-5 production by lymph node cells” value ([2]; cultured 72 h) was “unaffected”. For the same compound, the “IL-5 production by lymph node cells” value ([2]; cultured 72 h, listed as 3,4-DAA) was “significantly reduced”, the “cytokine production on restimulation with collagen” value ([2]; cultured 72 h in the presence of type II collagen (FIG. 8)) was “differences between the groups were not significant” and the inhibition at 100 µg/mL [3] was 75%.
